This test has as its target T1, VEGF receptor KDR (VEGFR2) (Homo sapiens, UniProt P35968).
T1 construct: made in house; host or cells: Sf9 cells (Spodoptera frugiperda), baculovirus
The experiment in a line: In vitro receptor tyrosine kinase assay (VEGF receptor KDR), DELFIA. In kind it is biochemical. The settings on record: recombinant GST-VEGFR2 (806-1356), ATP 0.6 uM, enzyme 5 nM; read-out: VEGFR_IC50_UM. An excerpt: In Vitro Receptor Tyrosine Kinase Assay (VEGF receptor KDR)
This test measures the ability of compounds to inhibit the enzymatic activity of recombinant human VEGF receptor enzymatic activity.
A 1.6-kb cDNA corresponding to the catalytic domain of VEGFR2 (KDR) (Genbank accession number AF035121 amino acid 806 to 1356) is cloned into the Pst I site of the pDEST20 Gateway vector (Invitrogen) for the production of a GST-tagged version of that enzyme. This construct is used to generate recombinant baculovirus using the Bac-to-Bac™ system according to the manufacturer's instructions (Invitrogen).
The GST-VEGFR2806-1356 protein is expressed in Sf9 cells (Spodoptera frugiperda) upon infection with recombinant baculovirus construct. Briefly, Sf9 cells grown in suspension and maintained in serum-free medium (Sf900 II supplemented with gentamycin) at a cell density of about 2×10^6 cells/ml are infected with the above-mentioned viruses at a multiplicity of infection (MOI) of 0.1 during 72 hours at 27° C. with agitation at 120 rpm on a rotary shaker. Infected cells are harvested by centrifugation at 398g for 15 min. Cell pellets are frozen at −80° C. until purification is performed.
All steps described in cell extraction and purification are performed at 4° C. Frozen Sf9 cell pellets infected with the GST-VEGFR2806-1356 recombinant baculovirus are thawed and gently resuspended in Buffer A (PBS pH 7.3 supplemented with 1 μg/ml pepstatin, 2 μg/ml Aprotinin and leupeptin, 50 μg/ml PMSF, 50 μg/ml TLCK and 10 μM E64 and 0.5 mM DTT) using 3 ml of buffer per gram of cells. Suspension is Dounce homogenized and 1% Triton X-100 is added to the homogenate after which it is centrifuged at 22500 g, 30 min., 4 °C. The supernatant (cell extract) is used as starting material for purification of GST-VEGFR2806-1356.
The supernatant is loaded onto a GST-agarose column (Sigma) equilibrated with PBS pH 7.3. Following a four column volume (CV) wash with PBS pH 7.3+1% Triton X-100 and 4 CV wash with buffer B (50mM Tris pH 8.0, 20% glycerol and 100mM NaCl), bound proteins are step eluted with 5 CV of buffer B supplemented with 5 mM DTT and 15 mM glutathion. GST-VEGFR2806-1356 enriched fractions from this chromatography step are pooled based on U.V. trace i.e. fractions with high 0.D.280. Final GST-VEGFR2806-1356 protein preparations concentrations are about 0.7 mg/ml with purity approximating 70%. Purified GST-VEGFR2806-1356 protein stocks are aliquoted and frozen at −80° C. prior to use in enzymatic assay.
Inhibition of VEGFR/KDR is measured in a DELFIATM assay (Perkin Elmer). The substrate poly(Glu4, Tyr) is immobilized onto black high-binding polystyrene 96-well plates. The coated plates are washed and stored at 4° C. During the assay, the enzyme is pre-incubated with inhibitor and Mg-ATP on ice in polypropylene 96-well plates for 4 minutes, and then transferred to the coated plates. The subsequent kinase reaction takes place at 30° C. for 10-30 minutes. ATP concentrations in the assay are 0.6 uM for VEGFR/KDR (2× the Km). Enzyme concentration is 5 nM. After incubation, the kinase reactions are quenched with EDTA and the plates are washed. Phosphorylated product is detected by incubation with Europium-labeled anti-phosphotyrosine MoAb. After washing the plates, bound MoAb is detected by time-resolved fluorescence in a Gemini SpectraMax reader (Molecular Devices). Compounds are evaluated over a range of concentrations, and IC50 values (concentration of compounds giving 50% inhibition of enzymatic activity) are determined.

pIC50: −log10 of the molar value.

T1 sequence (P35968 806-1356): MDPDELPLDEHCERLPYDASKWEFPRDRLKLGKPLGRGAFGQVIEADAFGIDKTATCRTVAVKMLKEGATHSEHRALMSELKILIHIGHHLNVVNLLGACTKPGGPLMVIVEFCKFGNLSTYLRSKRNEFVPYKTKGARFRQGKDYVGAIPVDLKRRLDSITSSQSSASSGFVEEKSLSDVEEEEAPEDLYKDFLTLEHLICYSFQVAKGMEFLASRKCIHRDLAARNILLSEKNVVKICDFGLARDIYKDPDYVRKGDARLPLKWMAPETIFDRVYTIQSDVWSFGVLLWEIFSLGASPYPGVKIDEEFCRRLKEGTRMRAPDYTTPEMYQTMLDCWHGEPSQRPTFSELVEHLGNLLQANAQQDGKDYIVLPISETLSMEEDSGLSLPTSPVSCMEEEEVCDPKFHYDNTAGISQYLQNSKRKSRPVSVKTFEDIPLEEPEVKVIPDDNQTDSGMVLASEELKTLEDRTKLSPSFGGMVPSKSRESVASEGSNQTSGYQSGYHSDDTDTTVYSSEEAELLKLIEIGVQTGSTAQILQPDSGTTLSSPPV

With `CN(C)CCN(C)C(=O)C1CCCN(Cc2ccc(-c3cc4nccc(Oc5ccc(NC(=O)NC6CC6)cc5F)c4s3)nc2)C1` (centres unmarked) [Compound 4, 1-((6-(7-(4-(3-Cyclopropylureido)-2-fluorophenoxy)thieno [3,2-b]pyridin-2-yl)pyridin-3-yl)methyl)-N-(2-(dimethylamino)ethyl)-N-methylpiperidine-3-carboxamide], the pIC50 is 8.10. With `CNCCNC(=O)C1CCCN(Cc2ccc(-c3cc4nccc(Oc5ccc(NC(=O)NC6CC6)cc5F)c4s3)nc2)C1` (centres unmarked) [Compound 5, 1-((6-(7-(4-(3-Cyclopropylureido)-2-fluorophenoxy)thieno[3,2-b]pyridin-2-yl)pyridin-3-yl)methyl)-N-(2-(methylamino)ethyl)piperidine-3-carboxamide], the pIC50 is 8.10.

Turning to `CN(C)[C@H]1CCN(C(=O)C2CCCN(Cc3ccc(-c4cc5nccc(Oc6ccc(NC(=O)NC7CC7)cc6F)c5s4)nc3)C2)C1` (stereo partly drawn) [Compound 6, 1-Cyclopropyl-3-(4-(2-(5-((3-((S)-3-(dimethylamino)pyrrolidine-1-carbonyl)piperidin-1-yl)methyl)pyridin-2-yl)thieno[3,2-b]pyridin-7-yloxy)-3-fluorophenyl)urea], the pIC50 was 8.15. As for `O=C(Nc1ccc(Oc2ccnc3cc(-c4ccc(CN5CCCC(C(=O)N6CC[C@@H](O)C6)C5)cn4)sc23)c(F)c1)NC1CC1` (stereo partly drawn) [Compound 7, 1-Cyclopropyl-3-(3-fluoro-4-(2-(5-((3-((R)-3-hydroxypyrrolidine-1-carbonyl)piperidin-1-yl)methyl)pyridin-2-yl)thieno[3,2-b]pyridin-7-yloxy)phenyl)urea], the figure is 8.15; as for `O=C(Nc1ccc(Oc2ccnc3cc(-c4ccc(CN5CCCC(C(=O)N6CC[C@H](O)C6)C5)cn4)sc23)c(F)c1)NC1CC1` (stereo partly drawn) [Compound 8, 1-Cyclopropyl-3-(3-fluoro-4-(2-(5-((3-((S)-3-hydroxypyrrolidine-1-carbonyl)piperidin-1-yl)methyl)pyridin-2-yl)thieno[3,2-b]pyridin-7-yloxy)phenyl)urea], 8.52. As for `O=C(Nc1ccc(Oc2ccnc3cc(-c4ccc(CN5CCCC(C(=O)NC[C@@H](O)CO)C5)cn4)sc23)c(F)c1)NC1CC1` (stereo partly drawn) [Compound 9, 1-((6-(7-(4-(3-Cyclopropylureido)-2-fluoro-phenoxy)thieno[3,2-b]pyridin-2-yl)pyridin-3-yl)methyl)-N-((R)-2,3-dihydroxypropyl)piperidine-3-carboxamide], the figure is 7.96; as for `CN(C)CCNC(=O)[C@@H]1CCCN(Cc2ccc(-c3cc4nccc(Oc5ccc(NC(=O)NC6CC6)cc5F)c4s3)nc2)C1` [Compound 10, (R)-1-((6-(7-(4-(3-Cyclopropylureido)-2-fluorophenoxy)thieno[3,2-b]pyridin-2-yl)pyridin-3-yl)methyl)-N-(2-(dimethylamino)ethyl)piperidine-3-carboxamide], 8.15.

On to `CN(CCO)C(=O)[C@H]1CCCN(Cc2ccc(-c3cc4nccc(Oc5ccc(NC(=O)NC6CC6)cc5F)c4s3)nc2)C1` [Compound 11, (S)-1-((6-(7-(4-(3-Ccyclopropylureido)-2-fluorophenoxy)thieno[3,2-b]pyridin-2-yl)pyridin-3-yl)methyl)-N-(2-hydroxyethyl)-N-methylpiperidine-3-carboxamide], for which the pIC50 was 8.15.

Regarding `CN(CCO)C(=O)[C@@H]1CCCN(Cc2ccc(-c3cc4nccc(Oc5ccc(NC(=O)NC6CC6)cc5F)c4s3)nc2)C1` [Compound 12, (R)-1-((6-(7-(4-(3-Cyclopropylureido)-2-fluorophenoxy)thieno[3,2-b]pyridin-2-yl)pyridin-3-yl)methyl)-N-(2-hydroxyethyl)-N-methylpiperidine-3-carboxamide], the pIC50 was 8.22. As for `CN(C)CCNC(=O)[C@H]1CCCN(Cc2ccc(-c3cc4nccc(Oc5ccc(NC(=O)NC6CC6)cc5F)c4s3)nc2)C1` [Compound 13, (S)-1-((6-(7-(4-(3-Cyclopropylureido)-2-fluorophenoxy)thieno[3,2-b]pyridin-2-yl)pyridin-3-yl)methyl)-N-(2-(dimethylamino)ethyl)piperidine-3-carboxamide], the pIC50 was 8.10. As for `CC(=O)SCC(=O)N1CCN(Cc2ccc(-c3cc4nccc(Oc5ccc(NC(=O)NC6CC6)cc5F)c4s3)nc2)CC1` [Compound 22, S-2-(4-((6-(7-(4-(3-Cyclopropylureido)-2-fluorophenoxy)thieno[3,2-b]pyridin-2-yl)pyridin-3-yl)methyl)piperazin-1-yl)-2-oxoethyl ethanethioate], the figure is 7.82; as for `C[C@@H]1CN(C(=O)CO)CCN1Cc1ccc(-c2cc3nccc(Oc4ccc(NC(=O)NC5CC5)cc4F)c3s2)nc1` [Compound 26, (R)-1-Cyclopropyl-3-(3-fluoro-4-(2-(5-((4-(2-hydroxyacetyl)-2-methylpiperazin-1-yl)methyl)pyridin-2-yl)thieno[3,2-b]pyridin-7-yloxy)phenyl)urea], 8.40.

As to `CNCC(=O)N1CCN(Cc2ccc(-c3cc4nccc(Oc5ccc(NC(=O)NC6CC6)cc5F)c4s3)nc2)CC1` [Compound 28, 1-Cyclopropyl-3-(3-fluoro-4-(2-(5-((4-(2-(methylamino)acetyl)piperazin-1-yl)methyl)pyridin-2-yl)thieno[3,2-b]pyridin-7-yloxy)phenyl)urea], the pIC50 was 8.30. For the molecule `C[C@@H](O)CN1CCN(Cc2ccc(-c3cc4nccc(Oc5ccc(NC(=O)NC6CC6)cc5F)c4s3)nc2)CC1` [Compound 29, (R)-1-Cyclopropyl-3-(3-fluoro-4-(2-(5-((4-(2-hydroxypropyl)piperazin-1-yl)methyl)pyridin-2-yl)thieno[3,2-b]pyridin-7-yloxy)phenyl)urea], the pIC50 is 8.30. As for `COCCOCCOCC(=O)NC1CCN(Cc2ccc(-c3cc4nccc(Oc5ccc(NC(=O)NC6CC6)cc5F)c4s3)nc2)CC1` [Compound 31], the figure is 7.77.

For the molecule `COCC(=O)N1CCN(Cc2ccc(-c3cc4nccc(Oc5ccc(NC(=O)NC6CC6)cc5F)c4s3)nc2)CC1` [Compound 32, 1-Cyclopropvl-3-(3-fluoro-4-(2-(5-((4-(2-methoxyacetyl)piperazin-1-yl)methyl)pyridin-2-yl)thieno[3,2-b]pyridin-7-yloxy)phenyl)urea], the pIC50 is 8.22. As for `C[C@@H]1CN(Cc2ccc(-c3cc4nccc(Oc5ccc(NC(=O)NC6CC6)cc5F)c4s3)nc2)CCN1C(=O)CO` [Compound 33], the figure is 8.15; as for `CC(=O)OCC(=O)OCC(=O)N1CCN(Cc2ccc(-c3cc4nccc(Oc5ccc(NC(=O)NC6CC6)cc5F)c4s3)nc2)CC1` [Compound 34, 2-(4-((6-(7-(4-(3-Cyclopropylureido)-2-fluorophenoxy)thieno[3,2-b]pyridin-2-yl)pyridin-3-yl)methyl)piperazin-1-yl)-2-oxoethyl 2-acetoxyacetate], 8.30. In the case of `CC(=O)OC(C)(C)C(=O)N1CCN(Cc2ccc(-c3cc4nccc(Oc5ccc(NC(=O)NC6CC6)cc5F)c4s3)nc2)CC1` [Compound 35, 1-(4-((6-(7-(4-(3-Cyclopropylureido)-2-fluorophenoxy)thieno[3,2-b]pyridin-2-yl)pyridin-3-yl)methyl)piperazin-1-yl)-2-methyl-1-oxopropan-2-yl acetate], the pIC50 was 8.40. `COCCOCCOC(=O)N1CCN(Cc2ccc(-c3cc4nccc(Oc5ccc(NC(=O)NC6CC6)cc5F)c4s3)nc2)CC1` [Compound 75, 2-(2-Methoxyethoxy)ethyl 4-((6-(7-(4-(3-cyclopropylureido)-2-fluorophenoxy)thieno[3,2-b]pyridin-2-yl)pyridin-3-yl)methyl)piperazine-1-carboxylate]: the pIC50 was 7.80.

(Values after US20130096135A1, “Selected Inhibitors of Protein Tyrosine Kinase Activity” (METHYLGENE INC., priority 2011, published 2013).)
